According to patent US20260274892A1, “MACROCYCLIC BROAD SPECTRUM ANTIBIOTICS” (RQx Pharmaceuticals, Inc., priority 2017, published 2026):

What was measured:
[1] = test system: Methicillin Resistant Staphylococcus aureus strain USA 200; test: Minimum inhibitory concentration (MIC), CLSI broth micro-dilution, S. aureus; format: cell-based; conditions: Staphylococcus aureus, MRSA / USA200; Table 6; MRSA USA 200; cation adjusted Mueller Hinton Broth + 0.002% Tween-80; 35° C., 22 hours
Summary of the method: (§1)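 Colonies grown 20 h at 35° C on Trypticase Soy agar (MRSA) or Luria agar (E. coli) were suspended in cation-adjusted Mueller Hinton broth with 0.002% Tween-80. Suspensions were added at OD600 0.0005 to 10-point twofold compound dilutions, then incubated 22 h at 35° C.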

[2] = test system: Escherichia coli ATCC 25922; test: Minimum inhibitory concentration (MIC), CLSI broth micro-dilution, E. coli; format: cell-based; conditions: Escherichia coli, ATCC25922, 22 h, Table 6, cation adjusted Mueller Hinton Broth + 0.002% Tween-80, 35° C.
Summary of the method: as §1

| MIC [1] | MIC [2] | SMILES |
| --- | --- | --- |
| 0.016 µM | 0.25 µM | Cc1cc(-c2ccc(OC3CCCCC3)cc2)nc(C)c1C(=O)N[C@@H](CCN)C(=O)N(C)[C@@H]1C(=O)N[C@@H](C)C(=O)N[C@H](C(=O)NCC#N)Cc2ccc(OCCN)c(c2)-c2cc1ccc2OCCN (racemic) [Compound 364, rac-(8S,11S,14S)-3,18-bis(2-aminoethoxy)-N-(cyanomethyl)-11-methyl-14-[methyl-[rac-(2S)-4-amino-2-[[6-[4-(cyclohexoxy)phenyl]-2,4-dimethyl-pyridine-3-carbonyl]amino]butanoyl]amino]-10,13-dioxo-9,12-diazatricyclo[13.3.1.12,6]icosa-1(18),2(20),3,5,15(19),16-hexaene-8-carboxamide] |
| 0.016 µM | 0.13 µM | CCCCc1ccc(-c2cc(C)c(C(=O)N[C@@H](CCN)C(=O)N(C)[C@@H]3C(=O)N[C@@H](C)C(=O)N[C@H](C(=O)NCC#N)Cc4ccc(OCCN)c(c4)-c4cc3ccc4OCCN)c(C)n2)cc1 (racemic) [Compound 366, rac-(8S,11S,14S)-3,18-bis(2-aminoethoxy)-N-(cyanomethyl)-11-methyl-14-[methyl-[rac-(2S)-4-amino-2-[[6-(4-butylphenyl)-2,4-dimethyl-pyridine-3-carbonyl]amino]butanoyl]amino]-10,13-dioxo-9,12-diazatricyclo[13.3.1.12,6]icosa-1(18),2(20),3,5,15(19),16-hexaene-8-carboxamide] |
| 0.047 µM | 0.75 µM | Cc1cc(-c2ccc(C(C)(C)C)cc2N)nc(C)c1C(=O)N[C@@H](CCN)C(=O)N(C)[C@@H]1C(=O)N[C@@H](C)C(=O)N[C@H](C(=O)NCC#N)Cc2ccc(OCCN)c(c2)-c2cc1ccc2OCCN (racemic) [Compound 369, rac-(8S,11S,14S)-3,18-bis(2-aminoethoxy)-N-(cyanomethyl)-11-methyl-14-[methyl-[rac-(2S)-4-amino-2-[[6-(2-amino-4-tert-butyl-phenyl)-2,4-dimethyl-pyridine-3-carbonyl]amino]butanoyl]amino]-10,13-dioxo-9,12-diazatricyclo[13.3.1.12,6]icosa-1(18),2(20),3,5,15(19),16-hexaene-8-carboxamide] |
| 0.031 µM | 0.19 µM | Cc1cc(-c2ccc(C(C)(C)C)cc2)cc(C)c1C(=O)N[C@@H](CCN)C(=O)N(C)[C@@H]1C(=O)N[C@@H](C)C(=O)N[C@H](C(=O)NCC#N)Cc2ccc(OCCN)c(c2)-c2cc1ccc2OCCN (racemic) [Compound 370, rac-(8S,11S,14S)-3,18-bis(2-aminoethoxy)-N-(cyanomethyl)-11-methyl-14-[methyl-[rac-(2S)-4-amino-2-[[4-(4-tert-butylphenyl)-2,6-dimethyl-benzoyl]amino]butanoyl]amino]-10,13-dioxo-9,12-diazatricyclo[13.3.1.12,6]icosa-1(18),2(20),3,5,15(19),16-hexaene-8-carboxamide] |
| 0.031 µM | 0.19 µM | C[C@@H]1NC(=O)[C@@H](N(C)C(=O)[C@H](CCN)NC(=O)c2ccc(-c3ccc(C(C)(C)C)cc3)cc2Cl)c2ccc(OCCN)c(c2)-c2cc(ccc2OCCN)C[C@@H](C(=O)NCC#N)NC1=O (racemic) [Compound 371, rac-(8S,11S,14S)-3,18-bis(2-aminoethoxy)-N-(cyanomethyl)-11-methyl-14-[methyl-[rac-(2S)-4-amino-2-[[4-(4-tert-butylphenyl)-2-chloro-benzoyl]amino]butanoyl]amino]-10,13-dioxo-9,12-diazatricyclo[13.3.1.12,6]icosa-1(18),2(20),3,5,15(19),16-hexaene-8-carboxamide] |
| 0.023 µM | 0.38 µM | C[C@@H]1NC(=O)[C@@H](N(C)C(=O)[C@H](CCN)NC(=O)c2ccc(-c3ccc(C(C)(C)C)cc3)cc2N)c2ccc(OCCN)c(c2)-c2cc(ccc2OCCN)C[C@@H](C(=O)NCC#N)NC1=O (racemic) [Compound 372, rac-(8S,11S,14S)-3,18-bis(2-aminoethoxy)-N-(cyanomethyl)-11-methyl-14-[methyl-[rac-(2S)-4-amino-2-[[2-amino-4-(4-tert-butylphenyl)benzoyl]amino]butanoyl]amino]-10,13-dioxo-9,12-diazatricyclo[13.3.1.12,6]icosa-1(18),2(20),3,5,15(19),16-hexaene-8-carboxamide] |
| 0.031 µM | 0.5 µM | Cc1cc(Oc2ccc(C(C)(C)C)cc2)cc(C)c1C(=O)N[C@@H](CCN)C(=O)N(C)[C@@H]1C(=O)N[C@@H](C)C(=O)N[C@H](C(=O)NCC#N)Cc2ccc(OCCN)c(c2)-c2cc1ccc2OCCN (racemic) [Compound 375, rac-(8S,11S,14S)-3,18-bis(2-aminoethoxy)-N-(cyanomethyl)-11-methyl-14-[methyl-[rac-(2S)-4-amino-2-[[4-(4-tert-butylphenoxy)-2,6-dimethyl-benzoyl]amino]butanoyl]amino]-10,13-dioxo-9,12-diazatricyclo[13.3.1.12,6]icosa-1(18),2(20),3,5,15(19),16-hexaene-8-carboxamide] |
| 0.016 µM | 0.25 µM | C[C@@H]1NC(=O)[C@@H](N(C)C(=O)[C@H](CCN)NC(=O)c2ccc(Oc3ccc(C(C)(C)C)cc3)cc2Cl)c2ccc(OCCN)c(c2)-c2cc(ccc2OCCN)C[C@@H](C(=O)NCC#N)NC1=O (racemic) [Compound 376, rac-(8S,11S,14S)-3,18-bis(2-aminoethoxy)-N-(cyanomethyl)-11-methyl-14-[methyl-[rac-(2S)-4-amino-2-[[4-(4-tert-butylphenoxy)-2-chloro-benzoyl]amino]butanoyl]amino]-10,13-dioxo-9,12-diazatricyclo[13.3.1.12,6]icosa-1(18),2(20),3,5,15(19),16-hexaene-8-carboxamide] |
| 0.031 µM | 0.5 µM | CCCCc1ccc(Oc2ccc(C(=O)N[C@@H](CCN)C(=O)N(C)[C@@H]3C(=O)N[C@@H](C)C(=O)N[C@H](C(=O)NCC#N)Cc4ccc(OCCN)c(c4)-c4cc3ccc4OCCN)c(Cl)c2)cc1 (racemic) [Compound 377, rac-(8S,11S,14S)-3,18-bis(2-aminoethoxy)-N-(cyanomethyl)-11-methyl-14-[methyl-[rac-(2S)-4-amino-2-[[4-(4-butylphenoxy)-2-chloro-benzoyl]amino]butanoyl]amino]-10,13-dioxo-9,12-diazatricyclo[13.3.1.12,6]icosa-1(18),2(20),3,5,15(19),16-hexaene-8-carboxamide] |
| 0.031 µM | 0.38 µM | CCCCc1ccc(Oc2ccc(C(=O)N[C@@H](CCN)C(=O)N(C)[C@@H]3C(=O)N[C@@H](C)C(=O)N[C@H](C(=O)NCC#N)Cc4ccc(OCCN)c(c4)-c4cc3ccc4OCCN)c(Cl)c2)cc1CCCC (racemic) [Compound 378, rac-(8S,11S,14S)-3,18-bis(2-aminoethoxy)-N-(cyanomethyl)-11-methyl-14-[methyl-[rac-(2S)-4-amino-2-[[2-chloro-4-(3,4-dibutylphenoxy)benzoyl]amino]butanoyl]amino]-10,13-dioxo-9,12-diazatricyclo[13.3.1.12,6]icosa-1(18),2(20),3,5,15(19),16-hexaene-8-carboxamide] |
